The text below walks through data of patent US20240002362A1, “DEUTERATED 2-ARYLHETEROCYCLE-3-OXO-2,3- DIHYDROPYRIDAZINE-4-CARBOXAMIDE INHIBITOR AND PREPARATION METHOD THEREFOR AND APPLICATION THEREOF” (Shanghai Zelgen Pharma. Tech Co., Ltd., priority 2020, published 2024).

Type in all cases: in vivo
Data set [1] in a line: Pharmacokinetic test and evaluation in mice. The note with it: mouse, po; male ICR mice, gavage 2 mg/kg, plasma, n = 4, mean. As for the experimental part: Pharmacokinetic Test and Evaluation in Mice
After male ICR mice weighing about 20-30 g were fasted overnight, the mice were gavaged with 2 mg/kg of a solution of the compound of the present invention [CMC/TW80 as a carrier]. Blood was collected 0.5, 1.0, 2.0, 4.0, 6.0, 8.0, 12 and 24 h after the administration of the compound of the present invention, respectively, and the concentration of the compound of the present invention in plasma was determined by LC/MS/MS.

Data set [2] can be described thus: Pharmacokinetic test and evaluation in beagle dogs. The note with it: dog, po; male beagle dogs, gavage 2 mg/kg, plasma, n = 4, mean. As for the experimental part: Pharmacokinetic Test and Evaluation in Beagle Dogs
After male beagle dogs weighing about 6-7 Kg were fasted overnight, the beagle dogs were gavaged with 2 mg/kg of a solution of the compound of the present invention [CMC/TW80 as a carrier]. Blood was collected 0.5, 1.0, 2.0, 4.0, 6.0, 8.0, 12 and 24 h after the administration of the compound of the present invention, respectively, and the concentration of the compound of the present invention in plasma was determined by LC/MS/MS.

The test system of data set [3] is mouse colon cancer cells CT26.WT. The data set is described as follows: Pharmacodynamic test of anti-tumor activity, subcutaneous transplantation cancer model CT26.WT. The note with it: CT26.WT subcutaneous in nude mice; for TV (mm^3) (Tumor Volume) Day 0: Day 0 (baseline at grouping), 30 mg/Kg daily gavage; for % TGI (Tumor Growth Inhibition) / TV (mm^3) (Tumor Volume) Day 17: Day 17, 30 mg/Kg daily gavage. The protocol:
Pharmacodynamic Test and Evaluation of Anti-Tumor Activity
1. Subcutaneous Transplantation Cancer Model CT26.WT
5×10^5/100 uL of mouse colon cancer cells CT26.WT were subcutaneously inoculated into the right back of nude mice. The mice were monitored daily for health condition, and the measurement was started when tumors grew to be palpable. The tumor volume was calculated by adopting the following formula: 0.5×L×W^2, wherein L and W represent tumor length and width, respectively. When the tumor grew to about 50 mm^3, the mice were randomly grouped. The mice were gavaged daily with a solution of the compound at a corresponding dose (30 mg/Kg) [CMC/TW80 as a carrier], and at the same time, the general state of the mice was monitored. After the administration was started, the mice were weighed twice in the first week, and the tumor volume was measured twice; from the second week, the mice were weighed three times a week, and the tumor volume was measured three times.

Data set [4] can be described thus: Pharmacokinetic test and evaluation in rats. The note with it: rat, po; male SD rats, gavage 2 mg/kg, plasma, n = 4, mean. The protocol:
Pharmacokinetic Test and Evaluation in Rats
After male SD rats weighing about 220 g were fasted overnight, the rats were gavaged with 2 mg/kg of a solution of the compound of the present invention [CMC/TW80 as a carrier]. Blood was collected 0.5, 1.0, 2.0, 4.0, 6.0, 8.0, 12 and 24 h after the administration of the compound of the present invention, respectively, and the concentration of the compound of the present invention in plasma was determined by LC/MS/MS.

Each structure is given as a SMILES string.

In data set [1], `C[C@@H](CO)NC(=O)c1cc(-c2ccc(Cl)cc2)nn(-c2cnn(C)c2)c1=O` [BAY-2416964, reference compound] yielded an AUC(0-t) of 1490 ng·h/mL and a Cmax of 348 ng/mL. In data set [2], this molecule came in with an AUC(0-t) of 995 ng·h/mL and a maximum concentration (Cmax) of 211 ng/mL. Besides, in data set [3], the “TV (mm^3) (Tumor Volume) Day 0” value is given as 55.81 mm^3, the “% TGI (Tumor Growth Inhibition)” value was found to be 24.7% and the “TV (mm^3) (Tumor Volume) Day 17” value worked out at 1670.91 mm^3. In data set [4], the AUC(0-t) was found to be 624 ng·h/mL and the Cmax was determined as 99.5 ng/mL.

In data set [1], `[2H]C([2H])([2H])n1cc(-n2nc(-c3ccc(Cl)cc3)cc(C(=O)N[C@@H](C)CO)c2=O)cn1` [Example 2, (S)-6-(4-chlorophenyl)-N-(1-hydroxypropan-2-yl)-2-(1-(methyl-d3)-1H-pyrazole-4-yl)-3-oxo-2,3-dihydropyridazine-4-carboxamide] gave an AUC(0-t) of 850 ng·h/mL and a Cmax of 241 ng/mL. In addition, in data set [4], the AUC(0-t) was 990 ng·h/mL and the peak level (Cmax) was 146 ng/mL.

With `[2H]C([2H])(O)[C@H](C)NC(=O)c1cc(-c2ccc(Cl)cc2)nn(-c2cnn(C)c2)c1=O` [Example 7, (S)-6-(4-chlorophenyl)-N-(1-hydroxypropan-2-yl-1,1-d2)-2-(1-methyl-1H-pyrazole-4-yl)-3-oxo-2,3-dihydropyridazine-4-carboxamide], the figures for the AUC(0-t) in data set [1] and in data set [4] were 2460 ng·h/mL and 736 ng·h/mL, respectively. The Cmax is 351 ng/mL in data set [1] and 96.6 ng/mL in data set [4].

For `[2H]C([2H])(O)[C@H](C)NC(=O)c1cc(-c2ccc(Cl)cc2)nn(-c2cnn(C([2H])([2H])[2H])c2)c1=O` [Example 8, (S)-6-(4-chlorophenyl)-N-(1-hydroxypropan-2-yl-1,1-d2)-2-(1-(methyl-d3)-1H-pyrazole-4-yl)-3-oxo-2,3-dihydropyridazine-4-carboxamide], in data set [1], the AUC(0-t) was found to be 2620 ng·h/mL and the Cmax came out at 351 ng/mL. In data set [2], this molecule returned an AUC(0-t) of 1880 ng·h/mL and a Cmax of 294 ng/mL. Besides, in data set [3], the “TV (mm^3) (Tumor Volume) Day 0” value was 55.68 mm^3, the “% TGI (Tumor Growth Inhibition)” value stood at 50.5% and the “TV (mm^3) (Tumor Volume) Day 17” value amounted to 1117.93 mm^3. Besides, in data set [4], the AUC(0-t) is 1390 ng·h/mL and the Cmax came out at 230 ng/mL.
